# Measured values as given in ChEMBL document CHEMBL1137168, “Tubulin inhibitors. Synthesis and biological activity of HTI-286 analogs with B-segment heterosubstituents” (Bioorg Med Chem Lett, 2004).
# pIC50: −log10 of the molar value.
# Experiments:
# [1] = test system: KB 3-1; test: Compound was tested for the cytotoxicity against KB-3-1 cell line; value ranges from 0.6-2 nM; type: functional, cell-based; settings: Homo sapiens
# [2] = test system: KB; test: Compound was tested for the cytotoxicity against KB-8-5 cell line expressing P-glycoprotein; value ranges from 1.2-5 nM; type: functional, cell-based; settings: Homo sapiens
# [3] = test system: KB 3-1; test: Compound was tested for the cytotoxicity against KB-3-1 cell line; type: functional, cell-based; settings: Homo sapiens
# [4] = test system: KB; test: Compound was tested for the cytotoxicity against KB-8-5 cell line expressing P-glycoprotein; type: functional, cell-based; settings: Homo sapiens
# [5] = test system: Tubulin; test: Compound was evaluated for the inhibition of MAP-rich tubulin polymerisation at 0.3 uM
# [6] = test system: KB-V1 (Homo sapiens); test: Compound was tested for the cytotoxicity against KB-V1 cell line expressing P-glycoprotein
# [7] = test system: KB 3-1; test: Compound was tested for the cytotoxicity against KB-3-1 cell line; value ranges from 2-6 nM; type: functional, cell-based; settings: Homo sapiens
# [8] = test system: KB; test: Compound was tested for the cytotoxicity against KB-8-5 cell line expressing P-glycoprotein; value ranges from 30-80 nM; type: functional, cell-based; settings: Homo sapiens
Structure (SMILES),pIC50 [1],pIC50 [2],pIC50 [3],pIC50 [4],inhibition [5],pIC50 [6],pIC50 [7],pIC50 [8]
CN[C@H](C(=O)N[C@H](C(=O)N(C)[C@H](/C=C(\C)C(=O)O)C(C)C)C(C)(C)C)C(C)(C)c1ccccc1 [TALTOBULIN],8.70,8.30,,,,,,
CN[C@H](C(=O)N[C@H](C(=O)N(C)[C@H](/C=C(\C)C(=O)O)C(C)C)C(C)O)C(C)(C)c1ccccc1 (some centres not stated),,,6.56,6.16,91%,< 5.52,,
CN[C@H](C(=O)N[C@H](C(=O)N(C)[C@H](/C=C(\C)C(=O)O)C(C)C)C(C)(C)SCc1ccc(OC)cc1)C(C)(C)c1ccc(OC)cc1,,,7.80,7.36,77%,5.68,,
CN[C@H](C(=O)N[C@H](C(=O)N(C)[C@H](/C=C(\C)C(=O)O)C(C)C)C(C)(C)[S+](C)[O-])C(C)(C)c1ccccc1 (some centres not stated),,,< 5.52,< 5.52,43%,< 5.52,,
CN[C@H](C(=O)N[C@H](C(=O)N(C)[C@H](/C=C(\C)C(=O)O)C(C)C)C(C)(C)O)C(C)(C)c1ccccc1,,,7.24,7.02,84%,< 5.52,,
CN[C@H](C(=O)N[C@H](C(=O)N(C)[C@H](/C=C(\C)C(=O)O)C(C)C)C(C)(C)c1ccc(OC)cc1)C(C)(C)c1ccccc1,,,7.59,7.26,56%,5.75,,
CN[C@H](C(=O)N[C@H](C(=O)N(C)[C@H](/C=C(\C)C(=O)O)C(C)C)C(C)(C)SC)C(C)(C)c1ccccc1,,,8.92,8.66,,6.84,,
CN[C@H](C(=O)N[C@H](C(=O)N(C)[C@H](/C=C(\C)C(=O)O)C(C)C)C(C)(C)SCc1ccc(OC)cc1)C(C)(C)c1ccccc1,,,7.23,7.03,94%,5.64,,
CN[C@H](C(=O)N[C@H](C(=O)N(C)[C@H](/C=C(\C)C(=O)O)C(C)C)C(C)(C)S(C)(=O)=O)C(C)(C)c1ccccc1,,,6.75,6.23,87%,< 5.52,,
CC(=O)O[C@H]1C(=O)[C@@]2(C)[C@H]([C@H](OC(=O)c3ccccc3)[C@]3(O)C[C@H](OC(=O)[C@H](O)[C@@H](NC(=O)c4ccccc4)c4ccccc4)C(C)=C1C3(C)C)[C@]1(OC(C)=O)CO[C@@H]1C[C@@H]2O [PACLITAXEL],,,,,,< 5.52,8.22,7.10
CN[C@H](C(=O)N[C@@H](C(=O)N(C)[C@H](/C=C(\C)C(=O)O)C(C)C)C(C)O)C(C)(C)c1ccccc1 (some centres not stated),,,< 5.52,< 5.52,9%,< 5.52,,
CN[C@H](C(=O)N[C@H](C(=O)N(C)[C@H](/C=C(\C)C(=O)O)C(C)C)C(C)(C)SC)C(C)(C)c1ccc(OC)cc1,,,9.19,8.74,88%,7.20,,
CN[C@H](C(=O)N[C@H](C(=O)N(C)[C@H](/C=C(\C)C(=O)O)C(C)C)C(C)(C)F)C(C)(C)c1ccccc1,,,8.80,8.46,91%,6.93,,
CN[C@H](C(=O)N[C@H](C(=O)N(C)[C@H](/C=C(\C)C(=O)O)C(C)C)C(C)OC)C(C)(C)c1ccccc1 (some centres not stated),,,6.06,5.76,95%,< 5.52,,
